Measured values: patent EP0903346A1, “SYDNONE IMINE DERIVATIVES” (Chugai Seiyaku Kabushiki Kaisha, priority 1995, dated 1997)

How the values were obtained:
[1] = system: isolated rat aorta; test: Test with the use of isolated rat aorta (relaxation of potassium chloride contraction); details: relaxation of continuous contraction due to 30 mM potassium chloride, thoracic aorta of male Sprague Dawley rats, read-out: Rat aorta IC50
Description: The thoracic aorta was taken out from male Sprague Dawley rats weighing 450 to 600 g and cut into circular samples of 2 mm in width. […] The contraction reactions of the samples were isometrically recorded with FD pick-up. After 1 to 1.5 hours of equilibration, 30 mM potassium chloride was added to contract the tissue. […] As the test compounds, the invention compounds obtained in the above Examples were employed.

[2] = system: anesthetized rat; test: Blood pressure-lowering effect in anesthetized rat; format: in vivo; details: duodenal administration; for Blood pressure-lowering effect ED30: dose causing a decrease in the blood pressure by 30%; for Blood pressure-lowering effect Half duration: half duration at ED30 (recovery to 50% of the maximum decrease in blood pressure)
Description: Male Sprague Dawley rats weighing 280 to 450 g were anesthetized with sodium pentobarbital (50 mg/kg, i.p.) and fixed in the supine position. A canula was inserted into the trachea of each animal. Then the blood pressure of the animal was measured (AP-621G, Nippon Kohden Corp.) through a polyethylene tube (PE50) inserted into the right femoral artery via a pressure transducer (Life Kit DTS, DX-300, Nippon Kohden Corp.) and the heart rate was determined from the pulse wave (AT-610G, Nippon Kohden Corp.). A canula (PE10) for injecting the maintenance anesthetic drug (sodium pentobarbital 20 mg/kg/h) was inserted into the right femoral vein. The abdominal region was medianly sectioned and a canula (PE50 connected to a injection needle 23G) for duodenal drug administration was inserted thereinto and fixed with Aronalpha for surgical use. After 60-90 minutes of recovery period, the drug was administered into duodenum. After administering the drug, the blood pressure was measured until the average blood pressure returned to the level before the administration.
As the indication of the blood pressure-lowering effect of each drug, the dose causing a decrease in the blood pressure by 30%, based on the level before the administration, was calculated from the dose-response curve and employed as the 30% effective dose (ED30). Moreover, the time required for the recovery to the level corresponding to 50% of the maximum decrease in the blood pressure (half duration) was measured at each dose. Then the half duration at the above-mentioned ED30 was calculated and employed as the indication of the lasting time of the blood pressure-lowering effect (half duration at ED30).
As the test compounds, use was made of the compounds of the present invention obtained in the above Examples. Table C summarizes the results. Table C

Molecule	IC50 [1] [nM]	Blood pressure-lowering effect ED30 [2] [mg/kg]	Blood pressure-lowering effect Half duration [2] [min]
CC1CCCC(C)N1[n+]1cc([N-]C(=O)CSC(=O)c2ccccc2)on1 (centres unmarked) [Example 16, N-((Benzoylthio)acetyl)-3-(2,6-dimethylpiperidin-1-yl)sydnonimine]	56	–	–
COc1cc(CC(=O)N2CCN([n+]3cc([N-]C(=O)CSC(=O)c4ccccc4)on3)CC2)cc(OC)c1OC [Example 32]	45	–	–
CC(=O)SCC(=O)N1CCN([n+]2cc([N-]C(=O)CSC(=O)c3ccccc3)on2)CC1 [Example 30-D, 3-(4-(Acetylthio)acetyl)piperazin-1-yl)-N-((benzoylthio)acetylsydnonimine]	120	–	–
CCN1CCN([n+]2cc([N-]C(=O)CCSC(=O)c3c(F)cccc3F)on2)CC1 [Example 146, N-(3-(2,6-Difluorobenzoylthio)propionyl)-3-(4-ethylpiperazin-1-yl)sydnonimine]	–	0.6	45
Cc1cccc(C)c1C(=O)SCCC(=O)[N-]c1c[n+](N2CCN(C)CC2)no1 [Example 141, N-(3-(2,6-Dimethylbenzoylthio)propionyl)-3-(4-methylpiperazin-1-yl)sydnonimine]	–	0.5	48
CC(=O)SC[C@@H](C)C(=O)[N-]c1c[n+](N2CCN(C)CC2)no1 [Example 78, N-((S)-3-(Acetylthio)isobutyryl)-3-(4-methylpiperazin-1-yl)sydnonimine]	–	1.0	40
CC(=O)N[C@@H](CSC(=O)c1ccc(F)cc1)C(=O)[N-]c1c[n+](N2CCN(C)CC2)no1 [Example 185, N-((R)-2-Acetylamino-3-(4-fluorobenzoylthio)propionyl)-3-(4-methylpiperazin-1-yl)sydnonimine]	–	1.5	53
3-(4-Benzylpiperazin-1-yl)-N-((3,4,5-trimethoxyphenyl)acetyl)sydnonimine [Example 17]	–	1.4	21
CC(C)N1CCN([n+]2cc([N-]C(=O)CCSC(=O)c3ccc(F)cc3)on2)CC1 [Example 137, N-(3-(4-Fluorobenzoylthio)propionyl)-3-(4-isopropylpiperazin-1-yl)sydnonimine]	–	0.6	46
Cc1cccc(C)c1C(=O)SCC(=O)[N-]c1c[n+](N2CCN(C)CC2)no1 [Example 132, N-((2,6-Dimethylbenzoylthio)acetyl)-3-(4-methylpiperazin-1-yl)sydnonimine]	–	0.7	44
CCN1CCN([n+]2cc([N-]C(=O)CSC(C)=O)on2)CC1 [Example 85, N-(Acetylthioacetyl)-3-(4-ethylpiperazin-1-yl)sydnonimine]	–	0.3	44
Cc1c(C)c2c(c(C)c1O)CCC(C)(C(=O)SCC(=O)[N-]c1c[n+](N3CCN(C)CC3)no1)O2 (centres unmarked) [Example 191, N-((6-Hydroxy-2,5,7,8-tetramethylchroman-2-carbonylthio)acetyl)-3-(4-methylpiperazin-1-yl)sydnonimine]	–	1.0	58
CC(=O)SCCC(=O)[N-]c1c[n+](N2CCN(Cc3ccccc3)CC2)no1 [Example 119, N-(3-(Acetylthio)propionyl)-3-(4-benzylpiperazin-1-yl)sydnonimine]	–	1.2	49
CCOC(=O)[N-]c1cn(N2CCOCC2)n[o+]1 [molsidomine, reference compound]	–	0.3	39
CCN1CCN([n+]2cc([N-]C(=O)CCSC(C)=O)on2)CC1 [Example 122, N-(3-(Acetylthio)propionyl)-3-(4-ethylpiperazin-1-yl)sydnonimine]	–	0.6	48
CN1CCN([n+]2cc([N-]C(=O)CCSC(=O)Nc3ccccc3)on2)CC1 [Example 171, N-(3-(Phenylcarbamoylthio)propionyl)-3-(4-methylpiperazin-1-yl)sydnonimine]	–	0.3	45
CN1CCN([n+]2cc([N-]C(=O)CCSc3cc(C(C)(C)C)c(O)c(C(C)(C)C)c3)on2)CC1 [Example 179, N-(3-(3,5-Di-t-butyl-4-hydroxyphenylthio)propionyl)-3-(4-methylpiperazin-1-yl)sydnonimine]	–	0.9	43
C[C@H](CSC(=O)c1ccccc1)C(=O)[N-]c1c[n+](N2CCN(C3CCCC3)CC2)no1 [Example 72, N-((S)-3-(Benzoylthio)isobutyryl)-3-(4-cyclopentylpiperazin-1-yl)sydnonimine]	–	1.3	47
CCNC(=O)SCCC(=O)[N-]c1c[n+](N2CCN(CC)CC2)no1 [Example 163, N-(3-(Ethylcarbamoylthio)propionyl)-3-(4-ethylpiperazin-1-yl)sydnonimine]	–	0.2	44
C[C@H](CSC(=O)c1ccccc1)C(=O)[N-]c1c[n+](N2CCN(Cc3ccccc3)CC2)no1 [Example 18, N-((S)-3-(Benzoylthio)isobutyryl)-3-(4-benzylpiperazin-1-yl)sydnonimine]	–	2.0	62
C[C@H](CSC(=O)c1ccccc1)C(=O)[N-]c1c[n+](N2CCN(CC(F)(F)F)CC2)no1 [Example 70, N-((S)-3-(Benzoylthio)isobutyryl)-3-(4-(2,2,2-trifluoroethyl)piperazin-1-yl)sydnonimine]	–	0.7	41
CCN1CCN([n+]2cc([N-]C(=O)CCSC(=O)C(C)(C)C)on2)CC1 [Example 155, N-(3-(Pivaloylthio)propionyl)-3-(4-ethylpiperazin-1-yl)sydnonimine]	–	0.2	46
CN1CCN([n+]2cc([N-]C(=O)CCCSC(=O)c3ccccc3)on2)CC1 [Example 174, N-(4-(Benzoylthio)butyryl)-3-(4-methylpiperazin-1-yl)sydnonimine]	–	0.5	43
CC(=O)N[C@@H](CSC(C)=O)C(=O)[N-]c1c[n+](N2CCN(C(C)C)CC2)no1 [Example 183, N-((R)-2-Acetylamino-3-(acetylthio)propionyl)-3-(4-isopropylpiperazin-1-yl)sydnonimine]	–	1.0	47
COc1cc(CC(=O)[N-]c2c[n+](N3CCN(C)CC3)no2)cc(OC)c1OC [Example 42, N-((3,4,5-Trimethoxyphenyl)acetyl)-3-(4-methylpiperazin-1-yl)sydnonimine]	–	4.0	60
CC(=O)SC[C@@H](C)C(=O)[N-]c1c[n+](N2CCN(C(C)C)CC2)no1 [Example 80, N-((S)-3-(Acetylthio)isobutyryl)-3-(4-isopropylpiperazin-1-yl)sydnonimine]	–	0.6	49
CC(C)N1CCN([n+]2cc([N-]C(=O)CCSC(=O)c3ccccc3)on2)CC1 [Example 129, N-(3-(Benzoylthio)propionyl)-3-(4-isopropylpiperazin-1-yl)sydnonimine]	–	1.3	42
CC(=O)N[C@@H](CSC(C)=O)C(=O)[N-]c1c[n+](N2CCN(C)CC2)no1 [Example 181, N-((R)-2-Acetylamino-3-(acetylthio)propionyl)-3-(4-methylpiperazin-1-yl)sydnonimine]	–	0.8	60
